Data reported in US20240415914A1, “Water Dispersible Cannabinoid Compositions” (priority 2021, published 2024).
Like-named read-outs stand apart in the source and are kept apart here.

Legend:
[1] = assay type: physicochemical; settings: stored at room temperature (21-25° C.)
Experimental: At each time period, 0.05 g of powder was dissolved in 10 ml-15 of ethanol, diluted to fall within the analytical range, and injected into the LCMSMS for analysis.

[2] = Stability of cannabinoid and Vitamin E components of Beverage 2 (AB Red) stored at 8° C. and 21-25° C., LCMSMS over 570 days
Experimental: The LCMSMS was calibrated for 0-50 ng/ml cannabinoids with the same resin material used in the preparation of the concentrates. At each time period, 100 μml of beverage was diluted with 10 ml of methanol and injected into the LCMSMS for analysis.

## Cc1c(C)c2c(c(C)c1O)CC[C@@](C)(CCC[C@H](C)CCC[C@H](C)CCCC(C)C)O2 [α-Tocopherol]
[1]; day 0
  Stability in Powder Concentrate (content by LCMSMS): 4.85 mg/g powder
[1]; day 1
  Stability in Powder Concentrate (content by LCMSMS): 4.89 mg/g powder
[1]; day 2
  Stability in Powder Concentrate (content by LCMSMS): 4.79 mg/g powder
[1]; day 3
  Stability in Powder Concentrate (content by LCMSMS): 4.69 mg/g powder
[1]; day 5
  Stability in Powder Concentrate (content by LCMSMS): 4.99 mg/g powder
[1]; day 8
  Stability in Powder Concentrate (content by LCMSMS): 4.69 mg/g powder
[1]; day 9
  Stability in Powder Concentrate (content by LCMSMS): 4.75 mg/g powder
[1]; day 10
  Stability in Powder Concentrate (content by LCMSMS): 4.77 mg/g powder
[1]; day 11
  Stability in Powder Concentrate (content by LCMSMS): 5.04 mg/g powder
[1]; day 12
  Stability in Powder Concentrate (content by LCMSMS): 5.01 mg/g powder
[1]; day 15
  Stability in Powder Concentrate (content by LCMSMS): 5.07 mg/g powder
[1]; day 16
  Stability in Powder Concentrate (content by LCMSMS): 4.96 mg/g powder
[1]; day 17
  Stability in Powder Concentrate (content by LCMSMS): 4.94 mg/g powder
[1]; day 18
  Stability in Powder Concentrate (content by LCMSMS): 4.77 mg/g powder
[1]; day 19
  Stability in Powder Concentrate (content by LCMSMS): 5.04 mg/g powder
[1]; day 22
  Stability in Powder Concentrate (content by LCMSMS): 4.94 mg/g powder
[1]; day 23
  Stability in Powder Concentrate (content by LCMSMS): 4.91 mg/g powder
[1]; day 24
  Stability in Powder Concentrate (content by LCMSMS): 5.00 mg/g powder
[1]; day 25
  Stability in Powder Concentrate (content by LCMSMS): 5.06 mg/g powder
[1]; day 26
  Stability in Powder Concentrate (content by LCMSMS): 4.84 mg/g powder
[1]; day 29
  Stability in Powder Concentrate (content by LCMSMS): 4.85 mg/g powder
[1]; day 30
  Stability in Powder Concentrate (content by LCMSMS): 4.83 mg/g powder
[1]; day 60
  Stability in Powder Concentrate (content by LCMSMS): 4.91 mg/g powder
[1]; day 90
  Stability in Powder Concentrate (content by LCMSMS): 4.96 mg/g powder
[1]; day 120
  Stability in Powder Concentrate (content by LCMSMS): 4.93 mg/g powder
[1]; day 150
  Stability in Powder Concentrate (content by LCMSMS): 4.69 mg/g powder
[1]; day 180
  Stability in Powder Concentrate (content by LCMSMS): 4.70 mg/g powder
[1]; day 210
  Stability in Powder Concentrate (content by LCMSMS): 4.84 mg/g powder
[1]; day 240
  Stability in Powder Concentrate (content by LCMSMS): 5.03 mg/g powder
[1]; day 270
  Stability in Powder Concentrate (content by LCMSMS): 4.78 mg/g powder
[1]; day 300
  Stability in Powder Concentrate (content by LCMSMS): 4.81 mg/g powder
[1]; day 330
  Stability in Powder Concentrate (content by LCMSMS): 4.81 mg/g powder
[1]; day 360
  Stability in Powder Concentrate (content by LCMSMS): 4.83 mg/g powder
[1]; day 390
  Stability in Powder Concentrate (content by LCMSMS): 4.91 mg/g powder
[1]; day 420
  Stability in Powder Concentrate (content by LCMSMS): 4.69 mg/g powder
[1]; day 450
  Stability in Powder Concentrate (content by LCMSMS): 5.00 mg/g powder
[1]; day 480
  Stability in Powder Concentrate (content by LCMSMS): 4.98 mg/g powder
[1]; day 510
  Stability in Powder Concentrate (content by LCMSMS): 5.02 mg/g powder
[1]; day 540
  Stability in Powder Concentrate (content by LCMSMS): 5.03 mg/g powder
[1]; day 570
  Stability in Powder Concentrate (content by LCMSMS): 4.72 mg/g powder
[2]; 8° C., 0 days
  Stability of Vitamin Es in AB Red: 25.3 µg/mL
[2]; 8° C., 1 days
  Stability of Vitamin Es in AB Red: 25.2 µg/mL
[2]; 8° C., 2 days
  Stability of Vitamin Es in AB Red: 24.9 µg/mL
[2]; 8° C., 3 days
  Stability of Vitamin Es in AB Red: 25.3 µg/mL
[2]; 8° C., 5 days
  Stability of Vitamin Es in AB Red: 24.2 µg/mL
[2]; 8° C., 8 days
  Stability of Vitamin Es in AB Red: 23.7 µg/mL
[2]; 8° C., 9 days
  Stability of Vitamin Es in AB Red: 24.6 µg/mL
[2]; 8° C., 10 days
  Stability of Vitamin Es in AB Red: 24.9 µg/mL
[2]; 8° C., 11 days
  Stability of Vitamin Es in AB Red: 23.9 µg/mL
[2]; 8° C., 12 days
  Stability of Vitamin Es in AB Red: 24.4 µg/mL
[2]; 8° C., 15 days
  Stability of Vitamin Es in AB Red: 25.6 µg/mL
[2]; 8° C., 16 days
  Stability of Vitamin Es in AB Red: 24.5 µg/mL
[2]; 8° C., 17 days
  Stability of Vitamin Es in AB Red: 23.6 µg/mL
[2]; 8° C., 18 days
  Stability of Vitamin Es in AB Red: 24.1 µg/mL
[2]; 8° C., 19 days
  Stability of Vitamin Es in AB Red: 24.0 µg/mL
[2]; 8° C., 22 days
  Stability of Vitamin Es in AB Red: 25.0 µg/mL
[2]; 8° C., 23 days
  Stability of Vitamin Es in AB Red: 23.2 µg/mL
[2]; 8° C., 24 days
  Stability of Vitamin Es in AB Red: 24.3 µg/mL
[2]; 8° C., 25 days
  Stability of Vitamin Es in AB Red: 23.6 µg/mL
[2]; 8° C., 26 days
  Stability of Vitamin Es in AB Red: 25.2 µg/mL
[2]; 8° C., 29 days
  Stability of Vitamin Es in AB Red: 23.5 µg/mL
[2]; 8° C., 30 days
  Stability of Vitamin Es in AB Red: 24.2 µg/mL
[2]; 8° C., 60 days
  Stability of Vitamin Es in AB Red: 24.2 µg/mL
[2]; 8° C., 90 days
  Stability of Vitamin Es in AB Red: 23.1 µg/mL
[2]; 8° C., 120 days
  Stability of Vitamin Es in AB Red: 25.2 µg/mL
[2]; 8° C., 150 days
  Stability of Vitamin Es in AB Red: 25.4 µg/mL
[2]; 8° C., 180 days
  Stability of Vitamin Es in AB Red: 23.6 µg/mL
[2]; 8° C., 210 days
  Stability of Vitamin Es in AB Red: 23.5 µg/mL
[2]; 8° C., 240 days
  Stability of Vitamin Es in AB Red: 23.6 µg/mL
[2]; 8° C., 270 days
  Stability of Vitamin Es in AB Red: 23.6 µg/mL
[2]; 8° C., 300 days
  Stability of Vitamin Es in AB Red: 23.1 µg/mL
[2]; 8° C., 330 days
  Stability of Vitamin Es in AB Red: 22.9 µg/mL
[2]; 8° C., 390 days
  Stability of Vitamin Es in AB Red: 23.1 µg/mL
[2]; 8° C., 420 days
  Stability of Vitamin Es in AB Red: 22.3 µg/mL
[2]; 8° C., 450 days
  Stability of Vitamin Es in AB Red: 22.7 µg/mL
[2]; 8° C., 480 days
  Stability of Vitamin Es in AB Red: 21.8 µg/mL
[2]; 8° C., 510 days
  Stability of Vitamin Es in AB Red: 22.0 µg/mL
[2]; 8° C., 540 days
  Stability of Vitamin Es in AB Red: 21.8 µg/mL
[2]; 8° C., 570 days
  Stability of Vitamin Es in AB Red: 21.5 µg/mL
[2]; 21-25° C., 0 days
  Stability of Vitamin Es in AB Red: 25.3 µg/mL
[2]; 21-25° C., 1 days
  Stability of Vitamin Es in AB Red: 24.4 µg/mL
[2]; 21-25° C., 2 days
  Stability of Vitamin Es in AB Red: 24.1 µg/mL
[2]; 21-25° C., 3 days
  Stability of Vitamin Es in AB Red: 23.8 µg/mL
[2]; 21-25° C., 5 days
  Stability of Vitamin Es in AB Red: 22.9 µg/mL
[2]; 21-25° C., 8 days
  Stability of Vitamin Es in AB Red: 24.5 µg/mL
[2]; 21-25° C., 9 days
  Stability of Vitamin Es in AB Red: 23.3 µg/mL
[2]; 21-25° C., 10 days
  Stability of Vitamin Es in AB Red: 23.0 µg/mL
[2]; 21-25° C., 11 days
  Stability of Vitamin Es in AB Red: 24.4 µg/mL
[2]; 21-25° C., 12 days
  Stability of Vitamin Es in AB Red: 23.4 µg/mL
[2]; 21-25° C., 15 days
  Stability of Vitamin Es in AB Red: 24.8 µg/mL
[2]; 21-25° C., 16 days
  Stability of Vitamin Es in AB Red: 25.1 µg/mL
[2]; 21-25° C., 17 days
  Stability of Vitamin Es in AB Red: 24.4 µg/mL
[2]; 21-25° C., 18 days
  Stability of Vitamin Es in AB Red: 24.9 µg/mL
[2]; 21-25° C., 19 days
  Stability of Vitamin Es in AB Red: 25.4 µg/mL
[2]; 21-25° C., 22 days
  Stability of Vitamin Es in AB Red: 25.4 µg/mL
[2]; 21-25° C., 23 days
  Stability of Vitamin Es in AB Red: 24.6 µg/mL
[2]; 21-25° C., 24 days
  Stability of Vitamin Es in AB Red: 23.5 µg/mL
[2]; 21-25° C., 25 days
  Stability of Vitamin Es in AB Red: 25.5 µg/mL
[2]; 21-25° C., 26 days
  Stability of Vitamin Es in AB Red: 24.3 µg/mL
[2]; 21-25° C., 29 days
  Stability of Vitamin Es in AB Red: 24.4 µg/mL
[2]; 21-25° C., 30 days
  Stability of Vitamin Es in AB Red: 24.6 µg/mL
[2]; 21-25° C., 60 days
  Stability of Vitamin Es in AB Red: 24.4 µg/mL
[2]; 21-25° C., 90 days
  Stability of Vitamin Es in AB Red: 24.3 µg/mL
[2]; 21-25° C., 120 days
  Stability of Vitamin Es in AB Red: 23.7 µg/mL
[2]; 21-25° C., 150 days
  Stability of Vitamin Es in AB Red: 23.4 µg/mL
[2]; 21-25° C., 180 days
  Stability of Vitamin Es in AB Red: 23.3 µg/mL
[2]; 21-25° C., 210 days
  Stability of Vitamin Es in AB Red: 22.7 µg/mL
[2]; 21-25° C., 240 days
  Stability of Vitamin Es in AB Red: 23.1 µg/mL
[2]; 21-25° C., 270 days
  Stability of Vitamin Es in AB Red: 23.1 µg/mL
[2]; 21-25° C., 300 days
  Stability of Vitamin Es in AB Red: 23.5 µg/mL
[2]; 21-25° C., 330 days
  Stability of Vitamin Es in AB Red: 22.6 µg/mL
[2]; 21-25° C., 390 days
  Stability of Vitamin Es in AB Red: 22.7 µg/mL
[2]; 21-25° C., 420 days
  Stability of Vitamin Es in AB Red: 22.5 µg/mL
[2]; 21-25° C., 450 days
  Stability of Vitamin Es in AB Red: 22.3 µg/mL
[2]; 21-25° C., 480 days
  Stability of Vitamin Es in AB Red: 21.6 µg/mL
[2]; 21-25° C., 510 days
  Stability of Vitamin Es in AB Red: 21.4 µg/mL
[2]; 21-25° C., 540 days
  Stability of Vitamin Es in AB Red: 21.0 µg/mL
[2]; 21-25° C., 570 days
  Stability of Vitamin Es in AB Red: 21.4 µg/mL
